Data from patent publication US10793580B2, “Substituted pyrazoloazepin-8-ones and their use as phosphodiesterase inhibitors” (LEO Pharma A/S, priority 2016, dated 2020).

Each molecule was assayed against human PDE4D catalytic domain (Homo sapiens (Human), UniProt Q08499) (assay: PDE4 Assay (TR-FRET, FAM-cAMP cleavage)). Details: Table 16, Examples 277-296; read-out: PDE4 IC50 range.
Format: biochemical
Procedure: The human PDE4D catalytic domain (UniProt no. Q08499 [S380-L740]) was incubated with a mixture of non-labelled cAMP (cyclic adenosine monophosphate) and fluorescein amidite (FAM) conjugated cAMP and titrated test or reference Compound. Following brief incubation the enzymatic reaction was stopped by addition of binding buffer containing nanoparticles with immobilized trivalent metal ions capable of binding 1) AMP phospho groups and 2) terbium (Tb) donor fluorophores. Subsequent excitation of the Tb donor triggers time-resolved FRET to adjacent FAM acceptor molecules resulting in light emission. In the presence of a PDE4 inhibitor, AMP generation was reduced resulting in a lower fluorescence signal. The cAMP phosphodiester is not bound by the detection system.
The results were calculated as the molar concentrations resulting in 50% inhibition of the substrate cleavage compared to controls samples, and are expressed as a range of IC50 (nM).

Sequence of human PDE4D catalytic domain (Q08499 380-740): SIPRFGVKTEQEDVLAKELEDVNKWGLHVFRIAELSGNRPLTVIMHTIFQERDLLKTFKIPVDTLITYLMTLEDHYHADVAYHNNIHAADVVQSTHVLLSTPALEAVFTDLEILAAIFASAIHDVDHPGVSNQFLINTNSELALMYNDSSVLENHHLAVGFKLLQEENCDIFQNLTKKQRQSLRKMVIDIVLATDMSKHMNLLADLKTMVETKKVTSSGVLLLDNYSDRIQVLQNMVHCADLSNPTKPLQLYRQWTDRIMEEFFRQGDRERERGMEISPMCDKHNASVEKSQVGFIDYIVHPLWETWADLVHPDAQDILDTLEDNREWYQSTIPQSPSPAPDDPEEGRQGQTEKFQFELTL

Q: How did the IC50 turn out when `CCn1nc(C[C@@H](C)COC(=O)c2cc(C)nc(C)c2)c2c1C(=O)NCC1(CCOCC1)C2` [Example 293, [(2R)-3-(1-ethyl-8-oxo-spiro[6,7-dihydro-4H-pyrazolo[3,4-c]azepine-5,4′-tetrahydropyran]-3-yl)-2-methyl-propyl] 2,6-dimethylpyridine-4-carboxylate] was run?
A: < 100 nM

Q: How did the IC50 turn out when `CCn1nc(C[C@@H](C)COC(=O)c2cscn2)c2c1C(=O)NCC1(CCOCC1)C2` [Example 285, [(2R)-3-(1-ethyl-8-oxo-spiro[6,7-dihydro-4H-pyrazolo[3,4-c]azepine-5,4′-tetrahydropyran]-3-yl)-2-methyl-propyl] thiazole-4-carboxylate] was run?
A: < 100 nM

Same assay, conditions: Table 17, Examples 297-316; read-out: PDE4 IC50 range

Q: With `CCn1nc(CC(C)(C)COC(=O)C2CCN(C)CC2)c2c1C(=O)NCC1(CCOCC1)C2` [Example 312, [3-(1-ethyl-8-oxo-spiro[6,7-dihydro-4H-pyrazolo[3,4-c]azepine-5,4′-tetrahydropyran]-3-yl)-2,2-dimethyl-propyl] 1-methylpiperidine-4-carboxylate] as the molecule, how does the IC50 read?
A: 100 to 500 nM

Same assay, conditions: human PDE4D catalytic domain (UniProt Q08499 [S380-L740]); 50% inhibition of substrate cleavage; read-out: PDE4 IC50 range

Q: `CCn1nc(CCCCOC(=O)c2cc(C)nc(C)c2)c2c1C(=O)NCC1(CCOCC1)C2` [Example 273, 4-(1-ethyl-8-oxo-spiro[6,7-dihydro-4H-pyrazolo[3,4-c]azepine-5,4′-tetrahydro-pyran]-3-yl)butyl 2,6-dimethylpyridine-4-carboxylate] was tested. Which IC50 did it give?
A: < 100 nM

Q: `CCn1nc(CCCOC(=O)c2ccc(C(F)(F)F)c(Cl)c2)c2c1C(=O)NCC1(CCOCC1)C2` [Example 86, 3-(1-ethyl-8-oxo-spiro[6,7-dihydro-4H-pyrazolo[3,4-c]azepine-5,4′-tetrahydro-pyran]-3-yl)propyl 3-chloro-4-(trifluoromethyl)benzoate] was tested. Which IC50 did it give?
A: < 100 nM

Q: With `CCn1nc(C[C@@H](C)COC(=O)c2cccc(S(=O)(=O)CC)c2)c2c1C(=O)NCC1(CCOCC1)C2` [Example 156, [(2R)-3-(1-ethyl-8-oxo-spiro[6,7-dihydro-4H-pyrazolo[3,4-c]azepine-5,4′-tetrahydropyran]-3-yl)-2-methyl-propyl] 3-ethylsulfonylbenzoate] as the molecule, how does the IC50 read?
A: < 100 nM

Q: `CCn1nc(C[C@@H](C)COC(=O)c2ccc(C(=O)N3CCCCC3)cc2)c2c1C(=O)NCC1(CCOCC1)C2` [Example 173, [(2R)-3-(1-ethyl-8-oxo-spiro[6,7-dihydro-4H-pyrazolo[3,4-c]azepine-5,4′-tetrahydropyran]-3-yl)-2-methyl-propyl] 4-(piperidine-1-carbonyl)benzoate] was tested. Which IC50 did it give?
A: < 100 nM

Q: For `CCn1nc(CCCOC(=O)c2cccc(OC)c2Cl)c2c1C(=O)NCC1(CCOCC1)C2` [Example 57, 3-(1-ethyl-8-oxo-spiro[6,7-dihydro-4H-pyrazolo[3,4-c]azepine-5,4′-tetrahydropyran]-3-yl)propyl 2-chloro-3-methoxy-benzoate], which IC50 is on record?
A: < 100 nM

Q: How did the IC50 turn out when `CCn1nc(CC(C)(C)COC(=O)c2ccc(S(=O)(=O)N(C)Cc3ccccc3)cc2)c2c1C(=O)NCC1(CCOCC1)C2` [Example 214, [3-(1-ethyl-8-oxo-spiro[6,7-dihydro-4H-pyrazolo[3,4-c]azepine-5,4′-tetrahydropyran]-3-yl)-2,2-dimethyl-propyl] 4-[benzyl(methyl)sulfamoyl] benzoate] was run?
A: < 100 nM

Q: For `CCn1nc(C[C@@H](C)COC(=O)c2ccc(C(=O)N(C)C)cc2)c2c1C(=O)NCC1(CCOCC1)C2` [Example 171, [(2R)-3-(1-ethyl-8-oxo-spiro[6,7-dihydro-4H-pyrazolo[3,4-c]azepine-5,4′-tetrahydropyran]-3-yl)-2-methyl-propyl] 4-(di-methylcarbamoyl)benzoate], which IC50 is on record?
A: < 100 nM

Q: How did the IC50 turn out when `CCn1nc(CCCOC(=O)c2cnsc2)c2c1C(=O)NCC1(CCOCC1)C2` [Example 243, 3-(1-ethyl-8-oxo-spiro[6,7-dihydro-4H-pyrazolo[3,4-c]azepine-5,4′-tetrahydropyran]-3-yl)propyl isothiazole-4-carboxylate] was run?
A: < 100 nM

Q: For `CCn1nc(CCCOC(=O)c2ccc(S(=O)(=O)N3CCOCC3)cc2)c2c1C(=O)NCC1(CCOCC1)C2` [Example 100, 3-(1-ethyl-8-oxo-spiro[6,7-dihydro-4H-pyrazolo[3,4-c]azepine-5,4′-tetrahydropyran]-3-yl)propyl 4-morpholinosulfonylbenzoate], which IC50 is on record?
A: < 100 nM

Q: Which IC50 does the source give for `CCn1nc(C[C@@H](C)COC(=O)c2ccc(S(=O)(=O)C3CCCC3)cc2)c2c1C(=O)NCC1(CCOCC1)C2` [Example 162, [(2R)-3-(1-ethyl-8-oxo-spiro[6,7-dihydro-4H-pyrazolo[3,4-c]azepine-5,4′-tetrahydropyran]-3-yl)-2-methyl-propyl] 4-cyclopentylsulfonylbenzoate] here?
A: < 100 nM

Q: For `CCn1nc(CCCOC(=O)c2cc(C)ns2)c2c1C(=O)NCC1(CCOCC1)C2` [Example 253, 3-(1-ethyl-8-oxo-spiro[6,7-dihydro-4H-pyrazolo[3,4-c]azepine-5,4′-tetrahydropyran]-3-yl)propyl 3-methylisothiazole-5-carboxylate], which IC50 is on record?
A: < 100 nM

Q: `CCn1nc(CCOC(=O)c2ccc(S(C)(=O)=O)cc2)c2c1C(=O)NCC1(CCOCC1)C2` [Example 136, 2-(1-ethyl-8-oxo-spiro-[6,7-dihydro-4H-pyrazolo-[3,4-c]azepine-5,4′-tetra-hydropyran]-3-yl)ethyl 4-methylsulfonylbenzoate] was tested. Which IC50 did it give?
A: < 100 nM

Q: Which IC50 does the source give for `CCn1nc(C[C@@H](C)COC(=O)c2ccc(S(=O)(=O)NC)cc2)c2c1C(=O)NCC1(CCOCC1)C2` [Example 158, [(2R)-3-(1-ethyl-8-oxo-spiro[6,7-dihydro-4H-pyrazolo[3,4-c]azepine-5,4′-tetrahydropyran]-3-yl)-2-methyl-propyl] 4-(methylsulfamoyl)benzoate] here?
A: < 100 nM

Q: `CCn1nc(CCCOC(=O)C2CCOC2)c2c1C(=O)NCC1(CCOCC1)C2` (stereo not shown) [Example 236, 3-(1-ethyl-8-oxo-spiro[6,7-dihydro-4H-pyrazolo[3,4-c]azepine-5,4′-tetrahydro-pyran]-3-yl)propyl tetrahydrofuran-3-carboxylate] was tested. Which IC50 did it give?
A: < 100 nM

Q: For `CCn1nc(CCCOC(=O)c2cccc(C#N)c2)c2c1C(=O)NCC1(CCOCC1)C2` [Example 11, 3-(1-ethyl-8-oxo-spiro[6,7-dihydro-4H-pyrazolo[3,4-c]azepine-5,4′-tetrahydropyran]-3-yl) propyl 3-cyanobenzoate], which IC50 is on record?
A: < 100 nM

Q: Which IC50 does the source give for `CCn1nc(CCCOC(=O)c2ccc(C(=O)NC)cc2)c2c1C(=O)NCC1(CCOCC1)C2` [Example 105, 3-(1-ethyl-8-oxo-spiro[6,7-dihydro-4H-pyrazolo[3,4-c]azepine-5,4′-tetrahydro-pyran]-3-yl)propyl 4-(methylcarbamoyl)benzoate] here?
A: < 100 nM

Q: `CCn1nc(CCCOC(=O)c2ccc(C(=O)N3CCN(C(C)=O)CC3)cc2)c2c1C(=O)NCC1(CCOCC1)C2` [Example 111, 3-(1-ethyl-8-oxo-spiro[6,7-dihydro-4H-pyrazolo[3,4-c]azepine-5,4′-tetrahydropyran]-3-yl)propyl 4-(4-acetylpiperazine-1-carbonyl)benzoate] was tested. Which IC50 did it give?
A: < 100 nM

Q: `CCn1nc(CCCOC(=O)c2cccc(S(=O)(=O)CC)c2)c2c1C(=O)NCC1(CCOCC1)C2` [Example 76, 3-(1-ethyl-8-oxo-spiro[6,7-dihydro-4H-pyrazolo[3,4-c]azepine-5,4′-tetrahydro-pyran]-3-yl)propyl 3-ethylsulfonylbenzoate] was tested. Which IC50 did it give?
A: < 100 nM

Q: `CCn1nc(CCCOC(=O)c2ccccc2)c2c1C(=O)NCC1(CCOCC1)C2` [Example 7, 3-(1-ethyl-8-oxo-spiro[6,7-dihydro-4H-pyrazolo[3,4-c]azepine-5,4′-tetrahydropyran]-3-yl)propyl benzoate] was tested. Which IC50 did it give?
A: < 100 nM

Q: For `CCn1nc(CCCOC(=O)c2ccc(C(=O)N(C)C)cc2)c2c1C(=O)NCC1(CCOCC1)C2` [Example 106, 3-(1-ethyl-8-oxo-spiro[6,7-dihydro-4H-pyrazolo[3,4-c]azepine-5,4′-tetrahydro-pyran]-3-yl)propyl 4-(dimethylcarbamoyl)benzoate], which IC50 is on record?
A: < 100 nM

Q: `CCn1nc(CCCOC(=O)c2ccc(C#N)cc2)c2c1C(=O)NCC1(CCOCC1)C2` [Example 12, 3-(1-ethyl-8-oxo-spiro[6,7-dihydro-4H-pyrazolo[3,4-c]azepine-5,4′-tetrahydropyran]-3-yl) propyl 4-cyanobenzoate] was tested. Which IC50 did it give?
A: < 100 nM

Q: With `CCn1nc(CCCCOC(=O)c2cc(C)n(C)n2)c2c1C(=O)NCC1(CCOCC1)C2` [Example 272, 4-(1-ethyl-8-oxo-spiro[6,7-dihydro-4H-pyrazolo[3,4-c]azepine-5,4′-tetrahydro-pyran]-3-yl)butyl 1,5-dimethylpyrazole-3-carboxylate] as the molecule, how does the IC50 read?
A: < 100 nM

Q: With `CCn1nc(CCCOC(=O)c2ccc(C(F)(F)F)cc2C(F)(F)F)c2c1C(=O)NCC1(CCOCC1)C2` [Example 97, 3-(1-ethyl-8-oxo-spiro[6,7-dihydro-4H-pyrazolo[3,4-c]azepine-5,4′-tetrahydro-pyran]-3-yl)propyl 2,4-bis(trifluoromethyl)benzoate] as the molecule, how does the IC50 read?
A: < 100 nM

Q: `CCn1nc(CCCOC(=O)c2cccc(C(=O)NC)c2)c2c1C(=O)NCC1(CCOCC1)C2` [Example 114, 3-(1-ethyl-8-oxo-spiro[6,7-dihydro-4H-pyrazolo[3,4-c]azepine-5,4′-tetrahydropyran]-3-yl)propyl 3-(methyl-carbamoyl)benzoate] was tested. Which IC50 did it give?
A: < 100 nM

Q: `CCn1nc(CCCCOC(=O)c2cscn2)c2c1C(=O)NCC1(CCOCC1)C2` [Example 269, 4-(1-ethyl-8-oxo-spiro[6,7-dihydro-4H-pyrazolo[3,4-c]azepine-5,4′-tetrahydropyran]-3-yl)butyl thiazole-4-carboxylate] was tested. Which IC50 did it give?
A: < 100 nM
